Test results taken from PMC12155096 (International Journal of Molecular Sciences, 2025).
Like-named read-outs stand apart in the source and are kept apart here. Each block holds one compound with its values, some of them ahead of it.

Assays:
CYP3A4 [1] = molecular target: T1, CYP3A4 (Homo sapiens, UniProt P08684); experiment: biochemical
human CYP2C9 [2] = molecular target: T2, human CYP2C9 (Homo sapiens, UniProt P11712); experiment: P450-Glo CYP2C9 inhibition qHTS
human CYP1A2 [3] = molecular target: T3, human CYP1A2 (Homo sapiens, UniProt P05177); experiment: biochemical
T3 sequence (P05177 1-516): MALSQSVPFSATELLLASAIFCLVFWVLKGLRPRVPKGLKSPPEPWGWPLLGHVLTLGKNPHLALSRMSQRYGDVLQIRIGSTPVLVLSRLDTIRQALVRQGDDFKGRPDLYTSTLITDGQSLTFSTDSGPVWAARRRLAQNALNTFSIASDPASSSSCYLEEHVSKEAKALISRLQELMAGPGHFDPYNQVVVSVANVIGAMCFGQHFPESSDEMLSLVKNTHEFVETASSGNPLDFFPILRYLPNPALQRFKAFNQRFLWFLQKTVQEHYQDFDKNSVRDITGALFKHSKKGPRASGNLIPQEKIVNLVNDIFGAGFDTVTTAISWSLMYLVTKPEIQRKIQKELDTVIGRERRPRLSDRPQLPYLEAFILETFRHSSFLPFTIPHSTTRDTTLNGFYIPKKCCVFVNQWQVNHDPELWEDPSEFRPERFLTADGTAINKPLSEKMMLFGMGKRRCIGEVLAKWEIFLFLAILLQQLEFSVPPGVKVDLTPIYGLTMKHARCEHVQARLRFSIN

human CYP2C19 [4] = molecular target: T4, human CYP2C19 (Homo sapiens, UniProt P33261)
T4 sequence (P33261 whole entry): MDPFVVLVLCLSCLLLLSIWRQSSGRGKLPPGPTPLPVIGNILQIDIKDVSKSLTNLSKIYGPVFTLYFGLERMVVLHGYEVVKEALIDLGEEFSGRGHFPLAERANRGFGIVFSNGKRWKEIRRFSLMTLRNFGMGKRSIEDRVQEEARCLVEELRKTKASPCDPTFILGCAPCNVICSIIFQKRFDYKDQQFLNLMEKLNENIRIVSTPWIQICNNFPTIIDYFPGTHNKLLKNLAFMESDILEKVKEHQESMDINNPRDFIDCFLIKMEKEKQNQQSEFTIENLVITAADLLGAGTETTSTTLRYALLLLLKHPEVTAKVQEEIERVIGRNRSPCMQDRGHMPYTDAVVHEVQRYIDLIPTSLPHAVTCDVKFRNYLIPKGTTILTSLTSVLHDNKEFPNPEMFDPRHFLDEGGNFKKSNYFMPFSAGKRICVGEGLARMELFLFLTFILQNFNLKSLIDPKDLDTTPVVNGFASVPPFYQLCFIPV

human CYP2D6 [5] = molecular target: T5, human CYP2D6 (Homo sapiens, UniProt P10635); experiment: P450-Glo CYP2D6 inhibition qHTS
T5 sequence (P10635 whole entry): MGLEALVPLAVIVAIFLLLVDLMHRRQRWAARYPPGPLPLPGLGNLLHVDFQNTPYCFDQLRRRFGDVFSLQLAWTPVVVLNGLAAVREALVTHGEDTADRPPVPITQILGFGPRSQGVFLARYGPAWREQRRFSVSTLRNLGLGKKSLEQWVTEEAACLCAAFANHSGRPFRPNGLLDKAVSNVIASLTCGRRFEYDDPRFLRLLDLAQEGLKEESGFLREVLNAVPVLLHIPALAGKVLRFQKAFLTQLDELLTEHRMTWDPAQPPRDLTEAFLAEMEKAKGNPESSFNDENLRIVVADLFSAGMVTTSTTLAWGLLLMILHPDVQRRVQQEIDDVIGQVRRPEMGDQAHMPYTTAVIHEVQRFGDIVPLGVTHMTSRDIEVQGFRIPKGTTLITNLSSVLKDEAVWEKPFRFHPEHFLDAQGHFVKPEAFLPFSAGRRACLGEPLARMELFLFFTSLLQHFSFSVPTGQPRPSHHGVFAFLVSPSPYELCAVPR

human CYP2C19 [6] = molecular target: T4, human CYP2C19; experiment: biochemical
human CYP2C19 [7] = molecular target: T4, human CYP2C19; experiment: P450-Glo CYP2C19 inhibition qHTS
[8] = molecular target: Photinus pyralis (firefly) luciferase (Photinus pyralis, UniProt P08659); experiment: biochemical; type: biochemical
Chain of Photinus pyralis (firefly) luciferase (P08659 whole entry): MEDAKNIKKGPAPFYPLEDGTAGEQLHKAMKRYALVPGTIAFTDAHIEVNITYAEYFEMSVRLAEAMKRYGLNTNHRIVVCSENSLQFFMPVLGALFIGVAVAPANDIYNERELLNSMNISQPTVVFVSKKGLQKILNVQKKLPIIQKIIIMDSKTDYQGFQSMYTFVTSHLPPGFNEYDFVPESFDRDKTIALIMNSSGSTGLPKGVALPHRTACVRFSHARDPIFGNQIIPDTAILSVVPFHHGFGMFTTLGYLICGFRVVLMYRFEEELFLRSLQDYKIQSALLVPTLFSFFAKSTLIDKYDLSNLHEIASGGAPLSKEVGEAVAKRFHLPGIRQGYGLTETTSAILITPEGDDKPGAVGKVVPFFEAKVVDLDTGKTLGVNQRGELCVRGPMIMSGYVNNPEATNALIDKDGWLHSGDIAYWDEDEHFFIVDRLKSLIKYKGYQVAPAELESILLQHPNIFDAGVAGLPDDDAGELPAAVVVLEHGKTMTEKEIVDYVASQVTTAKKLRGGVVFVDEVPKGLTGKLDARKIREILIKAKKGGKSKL

CYP3A4 [9] = molecular target: T1, CYP3A4
human CYP2D6 [10] = molecular target: T5, human CYP2D6; experiment: biochemical
human CYP2C9 [11] = molecular target: T2, human CYP2C9; experiment: biochemical
human CYP1A2 [12] = molecular target: T3, human CYP1A2
human CYP2C9 [13] = molecular target: T2, human CYP2C9
CYP3A4 [14] = molecular target: T1, CYP3A4; experiment: in vitro
human CYP2D6 [15] = molecular target: T5, human CYP2D6
[16] = in vivo; cited from earlier work

T2 sequence (P11712 whole entry): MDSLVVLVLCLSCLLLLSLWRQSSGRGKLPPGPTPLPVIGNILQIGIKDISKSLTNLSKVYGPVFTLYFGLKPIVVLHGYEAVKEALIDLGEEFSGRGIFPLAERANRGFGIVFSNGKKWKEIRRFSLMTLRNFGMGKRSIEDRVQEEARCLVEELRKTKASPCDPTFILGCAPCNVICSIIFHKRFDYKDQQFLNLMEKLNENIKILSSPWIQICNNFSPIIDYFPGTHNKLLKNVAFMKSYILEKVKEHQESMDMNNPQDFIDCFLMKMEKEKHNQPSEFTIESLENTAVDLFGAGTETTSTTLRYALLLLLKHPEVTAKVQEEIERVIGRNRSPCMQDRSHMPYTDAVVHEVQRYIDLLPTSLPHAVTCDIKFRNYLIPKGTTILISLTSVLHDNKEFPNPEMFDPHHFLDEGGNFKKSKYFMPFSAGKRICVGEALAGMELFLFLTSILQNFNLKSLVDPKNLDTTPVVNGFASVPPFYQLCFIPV
T1 sequence (P08684 whole entry): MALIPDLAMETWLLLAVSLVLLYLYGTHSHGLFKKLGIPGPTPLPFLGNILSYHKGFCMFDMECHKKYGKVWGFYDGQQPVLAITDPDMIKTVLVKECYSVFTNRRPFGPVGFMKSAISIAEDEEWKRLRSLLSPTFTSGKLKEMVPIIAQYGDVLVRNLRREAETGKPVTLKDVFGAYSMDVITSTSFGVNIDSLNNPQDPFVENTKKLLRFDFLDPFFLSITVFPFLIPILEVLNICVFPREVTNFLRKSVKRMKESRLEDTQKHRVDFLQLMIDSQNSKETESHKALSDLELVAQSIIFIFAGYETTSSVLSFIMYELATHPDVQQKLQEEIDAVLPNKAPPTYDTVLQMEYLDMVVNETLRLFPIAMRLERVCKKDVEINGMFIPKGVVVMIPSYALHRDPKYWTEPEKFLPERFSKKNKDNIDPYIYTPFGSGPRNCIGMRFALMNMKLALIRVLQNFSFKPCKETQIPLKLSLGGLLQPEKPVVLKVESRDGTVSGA

AC50 (CYP3A4 [1]): 34.4 ± 11.7 µM
CYP2C9 AC50 (half-maximal activity concentration) (human CYP2C9 [2]): Inconclusive inhibitor
AC50 (human CYP1A2 [3]): 58.8 µM
CYP2C19 AC50 (half-maximal activity concentration) (human CYP2C19 [4]): Inactive
CYP2D6 AC50 (half-maximal activity concentration) (human CYP2D6 [5]): Inconclusive inhibitor
SMILES: CC(C)(c1ccccc1)c1ccccc1 [2,2-Diphenylpropane]

SMILES: CSC(=O)c1cccc2nnsc12 [Acibenzolar-S-methyl]
IC50 (human CYP2C19 [6]): 13.2 µM
CYP2C19 Efficacy (in parenthesis) (human CYP2C19 [7]; human): 13.25 ± 2.38 (-133 ± 9) %
Luciferase IC50 (half-maximal inhibitory concentration) [8]: Inactive
CYP3A4 IC50 (half-maximal inhibitory concentration) (CYP3A4 [9]): Inactive
CYP2C9 Efficacy (in parenthesis) (human CYP2C9 [2]; human): 8.65 ± 1.19 (-93 ± 9) %
IC50 (human CYP1A2 [3]): 0.77 µM
IC50 (human CYP2D6 [10]): 34.3 µM
IC50 (human CYP2C9 [11]): 8.65 µM
CYP1A2 Efficacy (in parenthesis) (human CYP1A2 [12]; mean ± standard deviation from three experiments, negative = inhibition): 0.77 ± 0.11 (-94 ± 7) %
CYP2D6 Efficacy (in parenthesis) (human CYP2D6 [5]; human): 34.28 ± 2.23 (-79 ± 6) %

SMILES: C=CCN1C[C@H](C(=O)N(CCCN(C)C)C(=O)NCC)C[C@@H]2c3cccc4[nH]cc(c34)C[C@H]21 [Cabergoline]
Luciferase IC50 [8]: Inactive
CYP2C9 IC50 (human CYP2C9 [13]): Inactive
IC50 (human CYP2D6 [10]; CYP2D6 IC50): 1.47 µM
CYP2C19 IC50 (human CYP2C19 [4]): Inactive
IC50 (CYP3A4 [14]): 1.02 µM
CYP1A2 IC50 (human CYP1A2 [12]): Inactive

CYP2C19 AC50 (half-maximal activity concentration) (human CYP2C19 [7]): Inconclusive inhibitor
AC50 (CYP3A4 [1]): 4.12 ± 1.72 µM
AC50 (human CYP2C9 [11]): 8.32 ± 1.06 µM
CYP2D6 AC50 (half-maximal activity concentration) (human CYP2D6 [15]): Inactive
CYP1A2 AC50 (half-maximal activity concentration) (human CYP1A2 [12]): Inactive
SMILES: CCc1c(C(=O)NN2CCCCC2)nn(-c2ccc(Cl)cc2Cl)c1-c1ccc(Br)cc1 [Surinabant]

SMILES: COC(=O)[C@@H]1[C@H]2C[C@H]3c4[nH]c5ccccc5c4CCN3C[C@@H]2CC[C@@H]1O [Yohimbine, reference compound]
Cmax (maximum plasma concentration) [16]: 75 ng/mL
Luciferase IC50 (half-maximal inhibitory concentration) [8]: Inactive
